Experimental data: patent US20230189807A1, “COMPOSITIONS HAVING PESTICIDAL UTILITY AND PROCESSES RELATED THERETO” (priority 2020, published 2023)
Read-outs that look alike come from different tables or passages of the source.

Legend:
Assay type in all cases: in vivo
[1] = tested on: Neotropical Brown Stink Bug (Euschistus heros, EUSCHE); assay: Bioassay 5: Neotropical Brown Stink Bug, soaked green bean segments; conditions: 72 h; for pest or weed control at 0.000156 % / pest or weed control at 0.0025 %: read-out: Average % Control AI; for pest or weed control at 0.000625 %: AI alone 0.000625 % (w/v)
Description: Stock solutions were prepared with Formula One as well as for each of the active ingredients individually. Test solutions were prepared from the stock solutions. Test solutions were prepared containing Formula One, the individual active ingredients, and mixtures of Formula One with each of the active ingredients. The test solution for Formula One was prepared by adding 500 μL of the stock solution to a 25 mL glass vial, then adding 500 μL of acetone, followed by the addition of 9 mL water with 0.025% Tween® 20 to create a 0.04% (w/v) solution. The individual active ingredients were prepared by adding 500 μL of stock solution to a 25 mL glass vial, then adding 500 μL of acetone, followed by the addition of 9 mL water with 0.025% Tween® 20 to create a 0.005% (w/v) solution. The test solutions containing mixtures of Formula One and the individual active ingredients were prepared by adding 500 μL of the active ingredient stock solution to a 25 mL glass vial, followed by 500 μL of the Formula One stock solution, then by the addition of 9 mL water with 0.025% Tween® 20 to create a test solution containing 0.04% (w/v) Formula One and 0.005% (w/v) of the active ingredient. Each test solution was serially diluted to create desired doses of test solutions (0.01% (w/v), 0.0025% (w/v), 0.000625% (w/v), 0.000156% (w/v), and 0.000039% (w/v)). In test solutions containing mixtures of Formula One and the active ingredients, the active ingredients were diluted as described above, but the Concentration of Formula One was held constant (0.04% (w/v)).
The test solutions that were tested against BSB were similar to those described above for WTPB. Fresh green beans were cut into segments approximately 1.5 inches long. Four bean segments were added to each test solution and soaked for approximately 15 minutes. After soaking, a single bean fragment was removed and placed into a single well of a 32-well rearing tray (Frontier Agricultural Sciences™), on top of a round filter paper disc. A reference treatment (solvent check) was treated with the diluent only. Each treatment was replicated four times and the test treatments were held at approximately 26° C. and ambient relative humidity (RH) prior to grading. Bean segments were allowed to air dry for ˜30 minutes. Three BSB nymphs were added to and contained in each well with a clear perforated adhesive lid. The total number of living BSB nymphs was recorded 3 days after application. Scoring was based off the total number of living nymphs out of all four replicates. Percent control was measured using Abbott's correction formula (W. S. Abbott, J. Econ. Entomol. 18 (1925), pp. 265-267) as follows:
(§1) Corrected % Control=(1−(Y/X))*100
where X=No. of live nymphs on solvent check and Y=No. of live nymphs on treated bean segments. In Table B5 the “Expected % Control” was calculated using the method described in Colby S. R., Weeds, 1967, 15, 20-22. Bioassay 6: Beet Armyworm (Spodoptera exigua, LAPHEG) (BAW), and Diamondback Moth (Plutella xylostella, PLUTMA) (DBM).

[2] = tested on: Green Peach Aphid (Myzus persicae, MYZUPE); assay: Bioassay 1: Green Peach Aphid, cabbage seedling foliar spray; conditions: 3 days after treatment
Description: The stock solutions were prepared with Formula One as well as for each of the active ingredients individually. Test solutions were prepared from the stock solutions. Test solutions were prepared containing Formula One, the individual active ingredients, and mixtures of Formula One with each of the active ingredients. The test solutions for Formula One and the individual active ingredients were prepared by adding 750 microliters (μL) of stock solution to a 25 mL glass vial, then adding 750 μL of 1:1 acetone:methanol solvent, followed by the addition of 13.5 mL water with 0.025% Tween® 20 to create a 0.0005% (weight/volume (w/v)) solution. The test solutions containing mixtures of Formula One and the individual active ingredients were prepared by adding 750 μL of the active ingredient stock solution to a 25 mL glass vial, followed by 750 μL of the Formula One stock solution, then by the addition of 13.5 mL water with 0.025% Tween® 20 to create a test solution containing 0.0005% (w/v) Formula One and 0.0005% (w/v) of the active ingredient. Each test solution was serially diluted to create desired doses of test solutions (0.0005% (w/v), 0.000125% (w/v), 0.00003125% (w/v), 0.0000078% (w/v), 0.00000195% (w/v), and 0.0000005% (w/v)).
The test solutions were tested against GPA using the following procedure: Cabbage seedlings, grown in 3 inch pots with 2-3 small (3-5 centimeter (cm)) true leaves, were used as test substrate. The seedlings were infested with 20-50 GPA (wingless adult and nymph stages) one day prior to chemical application. Four pots with individual seedlings were used for each treatment. A hand-held aspirator-type sprayer was used for spraying a solution to both sides of […] leaves until runoff. Reference plants (solvent check) were sprayed with the diluent only (0.025% Tween® 20 and 10% acetone:methanol (1:1) in water). Treated plants were held in a holding room for three days at approximately 25° C. and ambient relative humidity (RH about 20% to about 45%) prior to grading. Evaluation was conducted by counting the number of live aphids per plant under a microscope three days after treatment. Percent control was measured using Abbott's correction formula (W. S. Abbott, J. Econ. Entomol. 18 (1925), pp. 265-267) as follows:
as §1
where X=No. of live aphids on solvent check plants and Y=No. of live aphids on treated plants. In Table B1 the “Expected % Control” was calculated using the method described in Colby S. R., Weeds, 1967, 15, 20-22. Bioassay 2: Sweet Potato Whitefly (Bemisia tabaci, BEMITA) (“SPW”).

[3] = tested on: Western Flower Thrips (Frankliniella occidentalis, FRANOC); assay: Bioassay 3: Western Flower Thrips, cotton leaf disc dip; conditions: foliar, 72 h; for pest or weed control at 0.0003125 %: AI alone 0.0003125 % (w/v); for pest or weed control at 7.8e-05 %: read-out: Average % Control AI; for pest or weed control at 0.005 %: AI alone 0.005 % (w/v)
Description: Stock solutions of Formula One and various active ingredients were prepared initially at a concentration of 8 mg/mL for Formula One and 1 mg/mL for the active ingredients, respectively, using acetone as a diluent. Stock solutions were prepared with Formula One as well as for each of the active ingredients individually. Test solutions were prepared from the stock solutions. Test solutions were prepared containing Formula One, the individual active ingredients, and mixtures of Formula One with each of the active ingredients. The test solution for Formula One was prepared by adding 500 μL of the stock solution to a 25 mL glass vial, then adding 500 μL of acetone, followed by the addition of 9 mL water with 0.025% Tween® 20 to create a 0.04% (w/v) solution. The test solutions of the individual active ingredients were prepared by adding 500 μL of stock solution to a 25 mL glass vial, then adding 500 μL of acetone, followed by the addition of 9 mL water with 0.025% Tween® 20 to create a 0.005% (w/v) solution. The test solutions containing mixtures of Formula One and the individual active ingredients were prepared by adding 500 μL of the active ingredient stock solution to a 25 mL glass vial, followed by 500 μL of the Formula One stock solution, then by the addition of 9 mL water with 0.025% Tween® 20 to create a test solution containing 0.04% (w/v) Formula One and 0.005% (w/v) of the active ingredient. Each test solution was serially diluted to create desired doses of test solutions (0.005% (w/v), 0.00125% (w/v), 0.0003125% (w/v), 0.000078% (w/v), and 0.0000195% (w/v)). In test solutions containing mixtures of Formula One and the active ingredients, the active ingredients were diluted as described above, but the Concentration of Formula One was held constant (0.04% (w/v)).
The test solutions were tested against WFT using the following procedure: Leaf discs (2.7 cm in diameter) were cut from the true leaves of cotton plants. Leaf discs were dipped into the test solutions and shaken to ensure complete coverage of the leaf disc and then placed in Millipore® PetriSlides containing a filter paper disc. Treated leaf discs were air dried for approximately 1 hour. Each leaf disc was infested with 5 WFT (9-10 day old nymphs) by placement on each leaf disc, and the PetriSlides were capped to prevent escape. Each treatment was replicated three times and the test treatments were held at approximately 26° C. and ambient relative humidity (RH) prior to grading. Reference discs (solvent check) were treated with the diluent only. Evaluation was conducted by counting the number of live WFT under magnification 3 days after treatment. Percent control was measured using Abbott's correction formula (W. S. Abbott, J. Econ. Entomol. 18 (1925), pp. 265-267) as follows:
as §1
where X=No. of live nymphs on solvent check leaf discs and Y=No. of live nymphs on treated leaf discs. In Table B3 the “Expected % Control” was calculated using the method described in Colby S. R., Weeds, 1967, 15, 20-22. Bioassay 4: Western Tarnished Plant Bug (Lygus hesperus, LYGUHE) (“WTPB”).

[4] = AI alone 0.000156 % (w/v), soaked bean segments, 3 days after application
[5] = soaked bean segments, 3 days after application
[6] = cotton leaf disc dip, 3 days after treatment
[7] = AI alone 0.0025 % (w/v), soaked bean segments, 3 days after application
[8] = AI alone 0.000078 % (w/v), cotton leaf disc dip, 3 days after treatment

`Cc1c(COC(=O)[C@@H]2[C@H](/C=C(\Cl)C(F)(F)F)C2(C)C)cccc1-c1ccccc1` (racemic) [Bifenthrin] was tested, and the pest or weed control at 0.000156 % [1, 4] was 30% and the “Average % Control A1” value ([2]; AI alone 0.78x10^-5 % (w/v)) was 52%.
`CC1(C)[C@H](C(=O)O[C@H](C#N)c2cccc(Oc3ccccc3)c2)[C@@H]1/C=C(\Cl)C(F)(F)F` (racemic) [Lambda Cyhalothrin] was tested, and the pest or weed control at 0.000625 % [1, 5] was 8%, the “Average % Control A1” value ([2]; AI alone 0.78x10^-5 % (w/v)) was 40% and the pest or weed control at 0.0003125 % [3, 6] was 7%.
Molecule `COP(=O)(NC(C)=O)SC` (stereo not shown) [Acephate] has a pest or weed control at 0.0025 % [1] of 0% and a pest or weed control at 7.8e-05 % [3] of 5%.
For `C/C(=N\C#N)N(C)Cc1ccc(Cl)nc1` [Acetamiprid], the “Average % Control A1” value ([2]; AI alone 0.78x10^-5 % (w/v)) was 24% and the pest or weed control at 0.0003125 % [3, 6] was 13%.
Work on `CNC(=O)c1cc(Cl)cc(C)c1NC(=O)c1cc(Br)nn1-c1ncccc1Cl` [Chlorantraniliprole] yielded a pest or weed control at 0.005 % [3, 6] of 7%.
With `CCOCn1c(-c2ccc(Cl)cc2)c(C#N)c(Br)c1C(F)(F)F` [Chlorfenapyr] the pest or weed control at 0.0025 % [1, 7] was 8% and the pest or weed control at 0.005 % [3, 6] was 57%.
`CN/C(=N/CC1CCOC1)N[N+](=O)[O-]` (stereo not shown) [Dinotefuran] showed a pest or weed control at 0.000156 % [1] of 17%.
In the case of `CC[S+]([O-])c1c(C#N)nn(-c2c(Cl)cc(C(F)(F)F)cc2Cl)c1N` (stereo not shown) [Ethiprole], the pest or weed control at 3.91e-05 % ([1]; AI alone 0.0000391 % (w/v), soaked bean segments, 3 days after application) is reported as 0%, the “Average % Control A1” value ([2]; AI alone 3.125x10^-5 % (w/v)) is reported as 0% and the pest or weed control at 0.005 % [3, 6] is reported as 0%.
`CON=CNC(=O)c1ccc(C2=NOC(c3cc(Cl)cc(Cl)c3)(C(F)(F)F)C2)cc1C` (stereo not shown) [Fluxametamide] was tested, and the “Average % Control A1” value ([2]; AI alone 12.5x10^-5 % (w/v)) was 0%.
For `O=[N+]([O-])NC1=NCCN1Cc1ccc(Cl)nc1` [Imidacloprid], the pest or weed control at 0.000625 % [1, 5] was 17% and the pest or weed control at 0.0003125 % [3, 6] was 0%.
In the case of `COc1cccc(C(=O)NN(C(=O)c2cc(C)cc(C)c2)C(C)(C)C)c1C` [Methoxyfenozide], the “Average % Control A1” value ([2]; AI alone 0.195x10^-5 % (w/v)) is reported as 5%.
Molecule `CNC(=O)O/N=C(\SC)C(=O)N(C)C` [Oxamyl] has a pest or weed control at 0.0003125 % [3, 6] of 0%.
In the case of `CC(COc1ccc(Oc2ccccc2)cc1)Oc1ccccn1` (stereo not shown) [Pyriproxyfen], the pest or weed control at 0.00125 % ([3]; AI alone 0.00125 % (w/v), cotton leaf disc dip, 3 days after treatment) is reported as 17%.
In the case of `CCOC(=O)OC1=C(c2cc(C)ccc2C)C(=O)N[C@]12CC[C@@H](OC)CC2` [Spirotetramat], the “Average % Control A1” value ([2]; AI alone 0.05x10^-5 % (w/v)) is reported as 15% and the pest or weed control at 7.8e-05 % [3, 8] is reported as 7%.
`CC(c1ccc(C(F)(F)F)nc1)S(C)(=O)=NC#N` (stereo not shown) [Sulfoxaflor] gave a pest or weed control at 0.0025 % [1, 7] of 58%.
`CN1COCN(Cc2cnc(Cl)s2)/C1=N\[N+](=O)[O-]` [Thiamethoxam] was tested, and the pest or weed control at 0.000156 % [1, 4] was 17% and the pest or weed control at 7.8e-05 % [3, 8] was 7%.
In the case of Emamectin Benzoate, the “Average % Control A1” value ([2]; AI alone 3.125x10^-5 % (w/v)) is reported as 21%.
